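Assay format: 96-well plates, 48-hour exposure. Here, GI50 denotes the concentration required for 50% inhibition of growth. TGI: concentration producing complete growth inhibition.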
How the values were obtained:
Test in all cases: inhibition of tumour cell growth, NCI panel, 48 h
MOLT-4 leukemia = tested on: MOLT-4 leukemia
OVCAR-8 ovarian = tested on: OVCAR-8 ovarian
SF-268 CNS = tested on: SF-268 CNS
UACC-257 melanoma = tested on: UACC-257 melanoma
NCI-H226 lung = tested on: NCI-H226 lung
SF-539 CNS = tested on: SF-539 CNS
SR leukemia = tested on: SR leukemia
MDA-MB-435 = tested on: MDA-MB-435
K-562 leukemia = tested on: K-562 leukemia
NCI-H23 lung = tested on: NCI-H23 lung
SW-620 colon = tested on: SW-620 colon
SK-MEL-28 melanoma = tested on: SK-MEL-28 melanoma
HCC-2998 colon = tested on: HCC-2998 colon
UO-31 renal = tested on: UO-31 renal
DU-145 prostate = tested on: DU-145 prostate
PC-3 prostate = tested on: PC-3 prostate
OVCAR-4 ovarian = tested on: OVCAR-4 ovarian
SK-MEL-2 melanoma = tested on: SK-MEL-2 melanoma
MCF7 breast = tested on: MCF7 breast
HOP-92 NSCLC = tested on: HOP-92 NSCLC
ACHN renal = tested on: ACHN renal
T-47D breast = tested on: T-47D breast
UACC-62 melanoma = tested on: UACC-62 melanoma
M14 melanoma = tested on: M14 melanoma
BT-549 breast = tested on: BT-549 breast
NCI-H522 lung = tested on: NCI-H522 lung
SN12C renal = tested on: SN12C renal
SNB-75 CNS = tested on: SNB-75 CNS
HT29 colon = tested on: HT29 colon
MALME-3M melanoma = tested on: MALME-3M melanoma
IGROV1 ovarian = tested on: IGROV1 ovarian
RPMI-8226 leukemia = tested on: RPMI-8226 leukemia
CAKI-1 renal = tested on: CAKI-1 renal
RXF 393 renal = tested on: RXF 393 renal
MDA-MB-231 breast = tested on: MDA-MB-231 breast
NCI-H460 lung = tested on: NCI-H460 lung
OVCAR-5 ovarian = tested on: OVCAR-5 ovarian
SK-OV-3 ovarian = tested on: SK-OV-3 ovarian
786-0 renal = tested on: 786-0 renal
HCT-15 colon = tested on: HCT-15 colon
CCRF-CEM leukemia = tested on: CCRF-CEM leukemia
TK-10 renal = tested on: TK-10 renal
A498 renal = tested on: A498 renal
SK-MEL-5 melanoma = tested on: SK-MEL-5 melanoma
SNB-19 CNS = tested on: SNB-19 CNS
HOP-62 NSCLC = tested on: HOP-62 NSCLC
EKVX NSCLC = tested on: EKVX NSCLC
HL-60(TB) leukemia = tested on: HL-60(TB) leukemia
KM12 colon = tested on: KM12 colon
SF-295 CNS = tested on: SF-295 CNS
OVCAR-3 ovarian = tested on: OVCAR-3 ovarian

`COc1cc2nc(N3CCCC3)nc(NCCc3ccccc3)c2cc1OC` showed a GI50 (MOLT-4 leukemia) of 2430 nM, a TGI (MOLT-4 leukemia) of 7690 nM and a GI50 (OVCAR-8 ovarian) of 2140 nM. It also gave a TGI (OVCAR-8 ovarian) of 6050 nM, a GI50 (SF-268 CNS) of 1970 nM and a TGI (SF-268 CNS) of 3950 nM. The GI50 (UACC-257 melanoma) was 1890 nM, the TGI (UACC-257 melanoma) was 3850 nM and the GI50 (NCI-H226 lung) was 11400 nM. The TGI (NCI-H226 lung) was 34000 nM, the GI50 (SF-539 CNS) was 1780 nM and the TGI (SF-539 CNS) was 3210 nM. The GI50 (SR leukemia) was 653 nM, the TGI (SR leukemia) was 5740 nM and the GI50 (MDA-MB-435) was 1740 nM. It also gave a TGI (MDA-MB-435) of 3250 nM, a GI50 (K-562 leukemia) of 1810 nM and a TGI (K-562 leukemia) of over 100000 nM. It also gave a GI50 (NCI-H23 lung) of 1800 nM, a TGI (NCI-H23 lung) of 3640 nM and a GI50 (SW-620 colon) of 1380 nM. For the same compound, the TGI (SW-620 colon) was 3070 nM, the GI50 (SK-MEL-28 melanoma) was 1660 nM and the TGI (SK-MEL-28 melanoma) was 3030 nM. The GI50 (HCC-2998 colon) was 1960 nM, the TGI (HCC-2998 colon) was 3640 nM and the GI50 (UO-31 renal) was 1290 nM. The TGI (UO-31 renal) was 2690 nM, the GI50 (DU-145 prostate) was 2110 nM and the TGI (DU-145 prostate) was 5110 nM. For the same compound, the GI50 (PC-3 prostate) was 1680 nM, the TGI (PC-3 prostate) was 3910 nM and the GI50 (OVCAR-4 ovarian) was 1760 nM. It also gave a TGI (OVCAR-4 ovarian) of 3710 nM, a GI50 (SK-MEL-2 melanoma) of 2020 nM and a TGI (SK-MEL-2 melanoma) of 3910 nM. For the same compound, the GI50 (MCF7 breast) was 1170 nM, the TGI (MCF7 breast) was 2850 nM and the GI50 (HOP-92 NSCLC) was 1480 nM. For the same compound, the TGI (HOP-92 NSCLC) was 3160 nM, the GI50 (ACHN renal) was 1670 nM and the TGI (ACHN renal) was 3040 nM. For the same compound, the GI50 (T-47D breast) was 1940 nM, the TGI (T-47D breast) was 4410 nM and the GI50 (UACC-62 melanoma) was 1650 nM. The TGI (UACC-62 melanoma) was 3060 nM, the GI50 (M14 melanoma) was 1800 nM and the TGI (M14 melanoma) was 3690 nM. The GI50 (BT-549 breast) was 1750 nM, the TGI (BT-549 breast) was 3510 nM and the GI50 (NCI-H522 lung) was 1990 nM. For the same compound, the TGI (NCI-H522 lung) was 4540 nM, the GI50 (SN12C renal) was 1870 nM and the TGI (SN12C renal) was 3790 nM. For the same compound, the GI50 (SNB-75 CNS) was 1520 nM, the TGI (SNB-75 CNS) was 2890 nM and the GI50 (HT29 colon) was 1810 nM. It also gave a TGI (HT29 colon) of 4190 nM, a GI50 (MALME-3M melanoma) of 1900 nM and a TGI (MALME-3M melanoma) of 3380 nM. For the same compound, the GI50 (IGROV1 ovarian) was 1510 nM, the TGI (IGROV1 ovarian) was 2950 nM and the GI50 (RPMI-8226 leukemia) was 2180 nM. For the same compound, the TGI (RPMI-8226 leukemia) was 5750 nM, the GI50 (CAKI-1 renal) was 1660 nM and the TGI (CAKI-1 renal) was 3190 nM. It also gave a GI50 (RXF 393 renal) of 1280 nM, a TGI (RXF 393 renal) of 2760 nM and a GI50 (MDA-MB-231 breast) of 1790 nM. The TGI (MDA-MB-231 breast) was 3350 nM, the GI50 (NCI-H460 lung) was 1860 nM and the TGI (NCI-H460 lung) was 3540 nM. It also gave a GI50 (OVCAR-5 ovarian) of 1720 nM, a TGI (OVCAR-5 ovarian) of 3210 nM and a GI50 (SK-OV-3 ovarian) of 1930 nM. It also gave a TGI (SK-OV-3 ovarian) of 3560 nM, a GI50 (786-0 renal) of 1710 nM and a TGI (786-0 renal) of 3210 nM. The GI50 (HCT-15 colon) was 1670 nM, the TGI (HCT-15 colon) was 3260 nM and the GI50 (CCRF-CEM leukemia) was 1440 nM. The TGI (CCRF-CEM leukemia) was 10600 nM, the GI50 (TK-10 renal) was 1970 nM and the TGI (TK-10 renal) was 3560 nM. The GI50 (A498 renal) was 1640 nM, the TGI (A498 renal) was 3500 nM and the GI50 (SK-MEL-5 melanoma) was 1700 nM. For the same compound, the TGI (SK-MEL-5 melanoma) was 3150 nM, the GI50 (SNB-19 CNS) was 1740 nM and the TGI (SNB-19 CNS) was 3300 nM. For the same compound, the GI50 (HOP-62 NSCLC) was 1930 nM, the TGI (HOP-62 NSCLC) was 3860 nM and the GI50 (EKVX NSCLC) was 1850 nM. It also gave a TGI (EKVX NSCLC) of 3900 nM, a GI50 (HL-60(TB) leukemia) of 1850 nM and a TGI (HL-60(TB) leukemia) of 4250 nM. The GI50 (KM12 colon) was 1960 nM, the TGI (KM12 colon) was 3740 nM and the GI50 (SF-295 CNS) was 1800 nM. For the same compound, the TGI (SF-295 CNS) was 3430 nM, the GI50 (OVCAR-3 ovarian) was 1960 nM and the TGI (OVCAR-3 ovarian) was 3680 nM.

Reference: PubChem BioAssay (NCI)
